75 compounds from patent publication US11759461B2, “Small molecule inhibitors of cancer stem cells and mesenchymal cancer types” (The Scripps Research Institute, priority 2017, dated 2023) can be followed below.

This test deals with FOXC2-expressing HMLER cells. The test is described as follows: Cell Titer Glo viability of FOXC2-HMLER cells (high throughput screen and 10-point response). It counts as cell-based. To be noted: Homo sapiens; scored relative to parent compound 3; 72 hours; read-out: Activity Score, inhibition of FOXC2-expressing HMLER cells by Formula III compounds. In a few lines: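 Viability after 72 h compound exposure was measured as Cell Titer Glo luminescence. FOXC2-HMLER and parental HMLER cells, 1,000 per well in MEGM medium, were dosed 1 h after plating; screening concentration was 2 μM.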
Background: Cellular ATP, detected with luciferase, serves as a proxy for viable cell number.

pIC50: −log10 of the molar value. Where only a bound is given, the exact number is not on record here.

For `Cc1ccc(C)c(N2CCN(CCCNC(=O)c3ccc(C)c(-n4nnc5cccnc54)c3)CC2)c1` [Compound 3AC], the pIC50 is 4.70 to 6.00.
For `Cc1ccc(Cl)cc1N1CCN(C(=O)c2cccc(-n3nnc4cccnc43)c2C)CC1` [Compound 3AD], the pIC50 was 4.70 to 6.00.
With `Cc1c(C(=O)NC2CC2)cccc1-n1nnc2cccnc21` [Compound 3AE] the figure was 4.70 to 6.00; with `Cc1c(C(=O)N2CCC(Cc3ccccc3)CC2)cccc1-n1nnc2cccnc21` [Compound 3AF], 4.70 to 6.00; with `Cc1ccc(C)c(N2CCN(CCCNC(=O)c3cccc(-n4nnc5cccnc54)c3C)CC2)c1` [Compound 3AH], 4.70 to 6.00.
The value for `O=C(c1ccc(-n2nnc3cccnc32)cc1)N1CCC(Cc2ccccc2)CC1` [Compound 3AI] was 4.70 to 6.00; that for `Cc1c(C(=O)N2CCN(c3ccccc3)CC2)cccc1-n1nnc2cccnc21` [Compound 3AJ] was 4.70 to 6.00.
With `Cc1c(C(=O)NCCCN2CCC(Cc3ccccc3)CC2)cccc1-n1nnc2cccnc21` [Compound 3AK], the pIC50 is 4.70 to 6.00.
With `CN(Cc1ccccc1)C(=O)c1ccc(-n2nnc3cccnc32)cc1` [Compound 3AL] the figure was below 4.70; with `O=C(c1ccc(-n2nnc3cccnc32)cc1)N1CCN(c2ccccc2)CC1` [Compound 3AM], below 4.70.
With `O=C(c1ccc(-n2nnc3cccnc32)cc1)N1CCN(C2CCCCC2)CC1` [Compound 3AN] the figure was below 4.70; with `CCN(Cc1ccccc1)C(=O)c1ccc(-n2nnc3cccnc32)cc1` [Compound 3AO], below 4.70; with `COc1ccc(N2CCN(C(=O)c3ccc(-n4nnc5cccnc54)cc3)CC2)cc1` [Compound 3AP], below 4.70.
As for `Cc1cc(C(=O)N2CCC(C)CC2)ccc1-n1nnc2cccnc21` [Compound 3AQ], the pIC50 was below 4.70.
With `Cc1ccc(NC(=O)c2ccc(-n3nnc4cccnc43)c(C)c2)cc1C` [Compound 3AR] the figure was below 4.70.
The value for `COc1ccc(N2CCN(C(=O)c3ccc(-n4nnc5cccnc54)c(C)c3)CC2)cc1` [Compound 3AS] was below 4.70; that for `Cc1ccc(NC(=O)c2ccc(-n3nnc4cccnc43)c(C)c2)cc1` [Compound 3AT] was below 4.70.
`Cc1cc(C(=O)NCCCN2CCN(C3CCCCC3)CC2)ccc1-n1nnc2cccnc21` [Compound 3AU]: the pIC50 was below 4.70.
With `O=C(c1cccc(-n2nnc3cccnc32)c1)N1CCCC1` [Compound 3AV] the figure was below 4.70.
The value for `CCCCN(CC)C(=O)c1cccc(-n2nnc3cccnc32)c1` [Compound 3AW] was below 4.70; that for `CCCCN(C)C(=O)c1cccc(-n2nnc3cccnc32)c1` [Compound 3AX] was below 4.70.
With `O=C(NC1CCN(Cc2ccccc2)CC1)c1cccc(-n2nnc3cccnc32)c1` [Compound 3AY] the figure was below 4.70; with `COc1ccc(N2CCN(C(=O)c3cccc(-n4nnc5cccnc54)c3)CC2)cc1` [Compound 3AZ], below 4.70.
Turning to `Cc1cccc(N2CCN(C(=O)c3ccc(C)c(-n4nnc5cccnc54)c3)CC2C)c1` (stereo not drawn) [Compound 3A], the pIC50 was above 6.00.
With `O=C(NCCCN1CCN(Cc2ccccc2)CC1)c1cccc(-n2nnc3cccnc32)c1` [Compound 3BA] the figure was below 4.70; with `Cc1ccc(C(=O)NCc2ccccc2)cc1-n1nnc2cccnc21` [Compound 3BB], below 4.70; with `Cc1ccc(C(=O)N(C)Cc2ccccc2)cc1-n1nnc2cccnc21` [Compound 3BC], below 4.70.
For `Cc1ccc(CNC(=O)c2ccc(C)c(-n3nnc4cccnc43)c2)cc1` [Compound 3BD], the pIC50 was below 4.70.
With `Cc1ccc(C(=O)N2CCN(C3CCCCC3)CC2)cc1-n1nnc2cccnc21` [Compound 3BE] the figure was below 4.70; with `Cc1cccc(CNC(=O)c2ccc(C)c(-n3nnc4cccnc43)c2)c1` [Compound 3BF], below 4.70; with `CCN(Cc1ccccc1)C(=O)c1ccc(C)c(-n2nnc3cccnc32)c1` [Compound 3BG], below 4.70.
With `Cc1ccc(C(=O)NC2CCN(Cc3ccccc3)CC2)cc1-n1nnc2cccnc21` [Compound 3BH] the figure was below 4.70; with `COc1ccc(N2CCN(C(=O)c3ccc(C)c(-n4nnc5cccnc54)c3)CC2)cc1` [Compound 3BI], below 4.70; with `Cc1ccc(C(=O)NCCCN(C)Cc2ccccc2)cc1-n1nnc2cccnc21` [Compound 3BJ], below 4.70.
With `Cc1ccc(C(=O)NCCCN2CCN(c3cccc(Cl)c3)CC2)cc1-n1nnc2cccnc21` [Compound 3BK] the figure was below 4.70.
Regarding `Cc1ccc(C(=O)NCCCN2CCc3ccccc3C2)cc1-n1nnc2cccnc21` [Compound 3BL], the pIC50 is below 4.70.
The value for `Cc1ccc(C(=O)NCc2ccc(N(C)C)cc2)cc1-n1nnc2cccnc21` [Compound 3BM] was below 4.70; that for `Cc1c(C(=O)NCc2ccccc2)cccc1-n1nnc2cccnc21` [Compound 3BN] was below 4.70; that for `Cc1c(C(=O)NC2CCCCCC2)cccc1-n1nnc2cccnc21` [Compound 3BO] was below 4.70.
The value for `Cc1c(C(=O)N2CCN(C3CCCCC3)CC2)cccc1-n1nnc2cccnc21` [Compound 3BP] was below 4.70; that for `Cc1cccc(CNC(=O)c2cccc(-n3nnc4cccnc43)c2C)c1` [Compound 3BQ] was below 4.70; that for `Cc1c(C(=O)N2CCC(N3CCCCC3)CC2)cccc1-n1nnc2cccnc21` [Compound 3BR] was below 4.70.
The value for `CCCCN(C)C(=O)c1cccc(-n2nnc3cccnc32)c1C` [Compound 3BS] was below 4.70.
As for `Cc1c(C(=O)NCC(C)c2ccccc2)cccc1-n1nnc2cccnc21` (stereo not drawn) [Compound 3BT], the pIC50 was below 4.70.
Take `Cc1c(C(=O)NC2CCN(Cc3ccccc3)CC2)cccc1-n1nnc2cccnc21` [Compound 3BU]: the pIC50 was below 4.70.
With `Cc1c(C(=O)N2CCN(Cc3ccc4c(c3)OCO4)CC2)cccc1-n1nnc2cccnc21` [Compound 3BV] the figure was below 4.70; with `Cc1c(C(=O)N2CCN(c3ccccc3F)CC2)cccc1-n1nnc2cccnc21` [Compound 3BW], below 4.70; with `Cc1c(C(=O)NCCCN(C)Cc2ccccc2)cccc1-n1nnc2cccnc21` [Compound 3BX], below 4.70.
With `Cc1c(C(=O)NCCN2CCCC2)cccc1-n1nnc2cccnc21` [Compound 3BY] the figure was below 4.70.
`COc1ccc(N2CCN(CCCNC(=O)c3cccc(-n4nnc5cccnc54)c3C)CC2)cc1` [Compound 3BZ]: the pIC50 was below 4.70.
As for `Cc1c(C(=O)N2CCN(c3cccc(Cl)c3)CC2)cccc1-n1nnc2cccnc21` [Compound 3B], the pIC50 was above 6.00.
With `Cc1ccc(CN2CCC(CNC(=O)c3cccc(-n4nnc5cccnc54)c3C)CC2)cc1` [Compound 3CA] the figure was below 4.70; with `Cc1c(C(=O)NCCCN2CCCC(C)C2)cccc1-n1nnc2cccnc21` (stereo not drawn) [Compound 3CB], below 4.70.
The value for `Cc1c(C(=O)NCCCN2CCN(c3ccc(F)cc3)CC2)cccc1-n1nnc2cccnc21` [Compound 3CC] was below 4.70; that for `Cc1c(C(=O)NCCCN2CCN(Cc3ccccc3)CC2)cccc1-n1nnc2cccnc21` [Compound 3CD] was below 4.70.
The value for `Cc1c(C(=O)NCCCN2CCC(N3CCCCC3)CC2)cccc1-n1nnc2cccnc21` [Compound 3CE] was below 4.70; that for `Cc1c(C(=O)NCCN(C)C2CCCCC2)cccc1-n1nnc2cccnc21` [Compound 3CF] was below 4.70; that for `Cc1c(C(=O)NCc2ccc(N(C)C)cc2)cccc1-n1nnc2cccnc21` [Compound 3CG] was below 4.70.
In the case of `Cc1c(C(=O)NCCCN2CCN(C3CCCCC3)CC2)cccc1-n1nnc2cccnc21` [Compound 3CH], the pIC50 is below 4.70.
The value for `Cc1ccccc1CNC(=O)c1cccc(-n2nnc3cccnc32)c1C` [Compound 3CI] was below 4.70; that for `Cc1c(C(=O)NCCC(C)N2CCCC2)cccc1-n1nnc2cccnc21` (stereo not drawn) [Compound 3CJ] was below 4.70; that for `Cc1c(C(=O)NC(C)C(=O)N2CCCCC2)cccc1-n1nnc2cccnc21` (stereo not drawn) [Compound 3CK] was below 4.70.
On to `O=C(c1ccc(-n2nnc3cccnc32)cc1)N1CCN(c2ccc(F)cc2)CC1` [Compound 3C], for which the pIC50 was above 6.00.
Take `Cc1ccc(C)c(N2CCN(C(=O)c3cccc(-n4nnc5cccnc54)c3)CC2)c1` [Compound 3D]: the pIC50 is above 6.00.
On to `Cc1ccc(Cl)cc1N1CCN(C(=O)c2cccc(-n3nnc4cccnc43)c2)CC1` [Compound 3E], for which the pIC50 was above 6.00.
Take `COc1cccc(N2CCN(C(=O)c3cccc(-n4nnc5cccnc54)c3C)CC2)c1` [Compound 3F]: the pIC50 was above 6.00.
With `Cc1ccc(C)c(N2CCN(C(=O)c3ccc(-n4nnc5cccnc54)cc3)CC2)c1` [Compound 3G] the figure was 4.70 to 6.00; with `Cc1ccc(Cl)cc1N1CCN(C(=O)c2ccc(-n3nnc4cccnc43)cc2)CC1` [Compound 3H], 4.70 to 6.00; with `Cc1cccc(N2CCN(C(=O)c3ccc(-n4nnc5cccnc54)cc3)CC2C)c1` (stereo not drawn) [Compound 3I], 4.70 to 6.00.
As to `O=C(c1ccc(-n2nnc3cccnc32)cc1)N1CCN(c2ccccc2F)CC1` [Compound 3J], the pIC50 is 4.70 to 6.00.
With `Cc1ccc(C)c(N2CCN(CCCNC(=O)c3ccc(-n4nnc5cccnc54)cc3)CC2)c1` [Compound 3K] the figure was 4.70 to 6.00; with `Cc1cc(C(=O)N2CCN(c3ccccc3)CC2)ccc1-n1nnc2cccnc21` [Compound 3L], 4.70 to 6.00; with `Cc1cc(C(=O)N2CCC(Cc3ccccc3)CC2)ccc1-n1nnc2cccnc21` [Compound 3M], 4.70 to 6.00.
In the case of `Cc1cc(C(=O)NC2CCN(Cc3ccccc3)CC2)ccc1-n1nnc2cccnc21` [Compound 3N], the pIC50 was 4.70 to 6.00.
The value for `Cc1cc(C(=O)Nc2cccc(CN3CCCC3)c2)ccc1-n1nnc2cccnc21` [Compound 3O] was 4.70 to 6.00.
